In US20070078096A1, “Buffered drug formulations for transdermal electrotransport delivery” (priority 1997, published 2007):
Where two headings read alike, the source gives them in different places. Non-standard residues stand in square brackets, D forms with d. Residues, ends and D or L forms follow the SMILES beside them. Cit = NC(=O)NCCC[C@H](N)C(=O)O; Orn = NCCC[C@H](N)C(=O)O

Assay: pKa, pI and charge distribution of buffers
Details: for % salt: fraction of dipeptide carrying a net charge in aqueous solution at pH equal to pI
Text: At the pI, three species coexist.
In an electric field these negative species move in the opposite direction of their positive associated counterions.
Choice of the dipeptide buffer will be on a case-by-case basis depending on the drug compound and the desired level of pH control and conductivity of the formulation.

Row | Compound | pka A | pI (Table 2) | % salt [%] | pI | species presenting a net charge (salt form) at the pI (at pI) | pka B
1 | CSCC[C@H](NC(=O)[C@@H](N)Cc1cnc[nH]1)C(=O)O [His-Met] (H-His-Met-OH) | 2.89 | 6.95 | 22 | – | – | –
2 | N[C@@H](CCC(=O)O)C(=O)N[C@@H](Cc1cnc[nH]1)C(=O)O [Glu-His] (H-Glu-His-OH) | – | 5.20 | 5 | 5.2 | about 5% | –
3 | NC(=O)NCCC[C@H](N)C(=O)N[C@@H](Cc1c[nH]cn1)C(=O)O [Citrulline-His] (H-[Cit]-His-OH) | 2.42 | 7.30 | 32 | – | – | –
4 | N[C@@H](CC(=O)O)C(=O)N[C@@H](Cc1cnc[nH]1)C(=O)O [Asp-His] (H-Asp-His-OH) | – | 4.90 | 3 | – | – | –
5 | N[C@@H](CC(=O)O)C(=O)N[C@@H](CC(=O)O)C(=O)O [Asp-Asp] (H-Asp-Asp-OH) | – | 3.05 | 43 | – | – | 8.26
6 | NCCCC[C@H](N)C(=O)N[C@@H](Cc1cnc[nH]1)C(=O)O [Lys-His] | 2.42 | 9.50 | 5 | – | – | –
7 | N[C@@H](Cc1cnc[nH]1)C(=O)N[C@@H](Cc1ccccc1)C(=O)O [His-Phe] (H-His-Phe-OH) | 2.88 | 6.95 | 22 | – | – | –
8 | CC[C@H](C)[C@H](NC(=O)[C@@H](N)Cc1cnc[nH]1)C(=O)O [His-Isoleucine] (H-His-Ile-OH) | 3.13 | 6.95 | 22 | – | – | –
9 | N[C@@H](Cc1cnc[nH]1)C(=O)N[C@@H](Cc1cnc[nH]1)C(=O)O [His-His] | 2.25 | 7.40 | 32 | – | – | –
10 | NCC(=O)N[C@@H](CC(=O)O)C(=O)O [Gly-Asp] (H-Gly-Asp-OH) | – | 3.60 | 23 | – | – | 8.60
11 | C[C@@H](O)[C@H](NC(=O)[C@@H](N)Cc1cnc[nH]1)C(=O)O [His-Thr] (H-His-Thr-OH) | 2.98 | 6.95 | 22 | – | – | –
12 | CC(C)C[C@H](NC(=O)[C@@H](N)Cc1cnc[nH]1)C(=O)O [His-Leu] (H-His-Leu-OH) | 3.10 | 6.95 | 22 | – | – | –
13 | N[C@@H](Cc1cnc[nH]1)C(=O)N[C@@H](Cc1ccc(O)cc1)C(=O)O [His-Tyr] (H-His-Tyr-OH) | – | 6.95 | 22 | – | – | –
14 | NC(N)=NCCC[C@H](N)C(=O)N[C@@H](CC(=O)O)C(=O)O [Arg-Asp] (H-Arg-Asp-OH) | – | 6.08 | 2 | – | – | –
15 | O=C(O)C(Cc1cnc[nH]1)NC(=O)C1CCCN1 (stereo not shown) [Pro-His] | 2.42 | 7.90 | 11 | – | – | –
16 | NCCC[C@H](NC(=O)[C@@H](N)Cc1c[nH]cn1)C(=O)O [His-Ornithine] (H-His-[Orn]-OH) | 2.82 | 9.40 | 5 | – | – | –
17 | NC(N)=NCCC[C@H](N)C(=O)N[C@@H](CCC(=O)O)C(=O)O [Arg-Glu] (H-Arg-Glu-OH) | – | 6.06 | 3 | – | – | –
18 | His-Gly-Gly-Gly-Gly (HGGGG; printed: His-Gly-Gly-Gly-Gly) | – | – | – | 6.0 | – | –
19 | NC[C@H](O)CC[C@H](N)C(=O)N[C@@H](Cc1c[nH]cn1)C(=O)O [Hydroxylysine-His] | 2.42 | 8.60 | 13 | – | – | –
20 | NC(=O)C[C@H](NC(=O)[C@@H](N)Cc1cnc[nH]1)C(=O)O [His-Asn] (H-His-Asn-OH) | 2.62 | 6.95 | 22 | – | – | –
21 | Gly-Gly-Gly-His (GGGH; printed: Gly-Gly-Gly-His) | – | – | – | 7.5 | – | –
22 | N[C@@H](Cc1ccc(O)cc1)C(=O)N[C@@H](Cc1cnc[nH]1)C(=O)O [Tyr-His] (H-Tyr-His-OH) | – | 7.15 | 39 | – | – | –
23 | Cn1cncc1C[C@H](NC(=O)CCN)C(=O)O [Anserine] | 2.64 | 8.27 | 10 | – | – | –
